From patent publication US20060292254A1, “Orally and nasally administered appetite suppressant” (priority 2005, published 2006)

Tested on: food intake in food deprived rats
Assay: Effect of intranasal administration of capsaicin on food intake in food deprived rats
Format: in vivo, Male Sprague-Dawley rats
Conditions: intra-nasal liquid solution, 0.02-2 mg/kg of body weight, food introduced one hour after administration, consumption determined after 4, 12 and 24 hours, mush diet
Description: Male Sprague-Dawley rats, 150-175 g at the start of the experiments (Charles River Laboratories, Wilmington, Mass.) were housed individually in suspended wire mesh cages. Rats had ad libitum access to tap water and food (Rodent Laboratory Chow No. 5001-pellet form, Purina) on non-testing days. A mush diet, used for experiments on food-deprived animals, and composed of equal parts by weight of ground rodent chow (Purina, #5001-meal form) and a 4% nutrient agar solution (Teklad Diets) was presented to the animals in glass jars. This agar-based chow diet allows for a more accurate measurement of food intake, and has been shown previously to be sufficient for maintaining normal rat growth.
Capsaicin was prepared as a liquid solution and administered intra-nasally, The drug dosage ranged from 0.02-2 mg/kg of body weight. Control animals were administered placebo formulation without capsaicin. One hour after administration, pre-weighed food jars were introduced into the cage and a sheet of clean white paper placed under each cage to catch any spillage. The amount of food consumed after 4, 12 and 24 hours was determined to the nearest 0.01 g.

Structure (SMILES): COc1cc(CNC(=O)CCCC/C=C/C(C)C)ccc1O [Capsaicin]
- amount of food consumed versus placebo: significantly less food
